{"source": "patent US20230372350A1", "about": "“ASTROCYTIC TRPA1 CHANNEL INHIBITION AS A NOVEL NEUROPROTECTIVE THERAPEUTIC TARGET IN THE PRODROMAL PHASES OF ALZHEIMER'S DISEASE” (priority 2020, published 2023)", "key": {"rodent forms of TRPA1": {"test_system": "rodent forms of TRPA1", "conditions": "McNamara et al. 2007, Eid et al. 2008, read-out: CI50 (the source's name); cited from earlier work"}, "APP/PS1-21 and WT mice": {"test_system": "APP/PS1-21 and WT mice", "experiment": "Chronic intraperitoneal treatment: Barnes maze", "format": "in vivo, mouse", "conditions": "6-months old", "procedure": "This solution is then diluted to 1 μg/μl in an isotonic solution containing 1% Pluronic F-127 and 0.9% NaCl. The animals are injected daily intraperitoneally at a dose of 5 mg/kg of body mass. Sterile 0.5 ml BD MicroFine syringes with no dead volume, equipped with a 30G (0.3 mm) needle are used for the injections. The injection is started from the 14th postnatal day (appearance of the expression of the Thy1gene promoter in the hippocampus, triggering the overexpression of Aβ in the APP/PS1-21 murine model) The mice were placed in the center of a well-lit open platform (BioSeb, diameter 120 cm). The platform includes 20 holes (diameter 5 cm) with an escape box (target) attached below any of the holes. On the first day of training, the mice were first placed in the middle of the platform and gently guided to the target after 5 minutes of free exploration. Once the mice entered the escape box, they remained there for 1 minute before being returned to their cage. During the 3 days of the training/acquisition phase, the mice performed 3 trials per day with an interval between trials of 20 minutes. The mice had 180 seconds to find the escape box or were gently guided thereto. On day 4 (test day), the escape box was removed and the mice were allowed to freely explore the maze for 60 seconds. The time taken to reach the target (latency) and the exploration time of the target area (target hole±1) were analyzed. All data were recorded and analyzed with EthoVision XT9 (Noldus). The working memory is perhaps one of the most studied aspects of memory impairment in Alzheimer's disease. The inventors administered daily the TRPA1 channel specific inhibitor (HC030031) or the carrier intraperitoneally (5 mg/kg of body mass) from the 14th postnatal day up to 6 months in APP/PS1-21 and wild-type WT mice."}, "human forms of TRPA1": {"biological_target": "human forms of TRPA1 (Homo sapiens, UniProt O75762)", "sequence (O75762 whole entry)": "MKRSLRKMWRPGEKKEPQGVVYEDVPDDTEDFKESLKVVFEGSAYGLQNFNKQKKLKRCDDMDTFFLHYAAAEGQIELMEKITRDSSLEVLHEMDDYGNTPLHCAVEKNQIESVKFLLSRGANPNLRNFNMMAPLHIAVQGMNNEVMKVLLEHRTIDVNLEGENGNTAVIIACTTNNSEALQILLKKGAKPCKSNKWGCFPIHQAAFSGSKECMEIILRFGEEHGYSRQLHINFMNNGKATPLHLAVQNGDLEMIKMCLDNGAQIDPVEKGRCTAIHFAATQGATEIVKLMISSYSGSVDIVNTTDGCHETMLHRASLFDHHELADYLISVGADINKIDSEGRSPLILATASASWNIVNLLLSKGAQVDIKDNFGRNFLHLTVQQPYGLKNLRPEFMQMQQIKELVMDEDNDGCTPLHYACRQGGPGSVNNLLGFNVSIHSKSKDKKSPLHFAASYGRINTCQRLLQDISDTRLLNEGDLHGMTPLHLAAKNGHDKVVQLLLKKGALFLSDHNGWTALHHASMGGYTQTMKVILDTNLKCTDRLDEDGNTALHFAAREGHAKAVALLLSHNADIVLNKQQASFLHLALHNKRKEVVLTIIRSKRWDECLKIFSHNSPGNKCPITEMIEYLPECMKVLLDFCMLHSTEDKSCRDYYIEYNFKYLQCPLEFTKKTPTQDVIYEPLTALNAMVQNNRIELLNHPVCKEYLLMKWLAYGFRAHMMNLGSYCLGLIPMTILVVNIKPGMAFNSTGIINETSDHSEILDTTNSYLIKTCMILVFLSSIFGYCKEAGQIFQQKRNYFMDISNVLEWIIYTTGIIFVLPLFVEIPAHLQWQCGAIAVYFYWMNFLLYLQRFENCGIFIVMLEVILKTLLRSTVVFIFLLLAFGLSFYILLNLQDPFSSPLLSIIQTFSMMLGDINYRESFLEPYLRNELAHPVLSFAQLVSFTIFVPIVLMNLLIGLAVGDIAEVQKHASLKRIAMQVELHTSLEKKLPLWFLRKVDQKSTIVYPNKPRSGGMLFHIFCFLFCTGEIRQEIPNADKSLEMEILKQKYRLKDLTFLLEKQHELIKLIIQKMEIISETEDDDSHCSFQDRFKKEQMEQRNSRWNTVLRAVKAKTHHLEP", "conditions": "McNamara et al. 2007, read-out: CI50 (the source's name); cited from earlier work"}, "[1]": {"test_system": "stratum radiatum synapses of APP/PS1-21 and WT mice", "experiment": "Chronic intraperitoneal treatment: electron microscopy of astrocyte coverage of synapses", "format": "in vivo, mouse", "conditions": "3-months old, i.p. treatment", "procedure": "This solution is then diluted to 1 μg/μl in an isotonic solution containing 1% Pluronic F-127 and 0.9% NaCl. The animals are injected daily intraperitoneally at a dose of 5 mg/kg of body mass. Sterile 0.5 ml BD MicroFine syringes with no dead volume, equipped with a 30G (0.3 mm) needle are used for the injections. The injection is started from the 14th postnatal day (appearance of the expression of the Thy1gene promoter in the hippocampus, triggering the overexpression of Aβ in the APP/PS1-21 murine model) Hippocampi were dissected and fixed with 1.7% of glutaraldehyde in 0.1 M phosphate buffer at pH 7.4 for 48 hours at room temperature. The CA1 region was dissected under a binocular magnifying glass and fixed again for 2 hours in the same solution. Samples were then washed with buffer and post-fixed with 1% of osmium tetroxide and 0.1M phosphate buffer with pH 7.2 for 1 hour at 4° C. After thorough washing with water, the cells were then stained with 1% of uranil acetate with pH 4 in water for 1 hour at 4° C. before being dehydrated by successive alcohol baths (30%-60%-90%-100%-100%-100%) and incubated with a 1:1 epon/ethanol at 100% mixture for 1 hour and several baths of fresh epoxy resin (Sigma-Aldrich, France) for 3 hours. Finally, the samples were included in a capsule filled with resin which was allowed to polymerize for 72 h at 60° C. […]"}, "[2]": {"test_system": "dendritic spines of CA1 pyramidal neurons, Thy1-eYFP-H-APP/PS1-21 mice", "experiment": "Chronic intraperitoneal treatment: analysis of dendritic spines", "format": "in vivo, mouse", "conditions": "3 months, treated from 14th postnatal day", "procedure": "In some experiments, APP/PS1-21 mice were crossed with the Thy1-eYFP-H murine transgenic line which expresses the fluorescent protein eYFP in specific neuron subpopulations. This solution is then diluted to 1 μg/μl in an isotonic solution containing 1% Pluronic F-127 and 0.9% NaCl. The animals are injected daily intraperitoneally at a dose of 5 mg/kg of body mass. Sterile 0.5 ml BD MicroFine syringes with no dead volume, equipped with a 30G (0.3 mm) needle are used for the injections. The injection is started from the 14th postnatal day (appearance of the expression of the Thy1gene promoter in the hippocampus, triggering the overexpression of Aβ in the APP/PS1-21 murine model) Hippocampal sections from Thy1-eYFP-H-APP/PS1-21 mice were imaged using a Zeiss Airyscan module with a 100× (NA 1.4) Plan Apochromat oil immersion objective. Confocal image stacks (increment of 200 nm) were performed with a voxel size of 0.041×0.041×0.2 μm. The 3D analysis of the spine density, of the spine volume and the spine classification was performed using NeuronStudio software (Icahn School of Medicine at Mount Sinai, USA). The length of individual dendrites was automatically measured as well as the number and volume of associated dendritic spines which were classified as […], thin or mushroom using automated 3D shape classification. For each condition, 10 dendrites were imaged and 700 dendritic spines were analyzed."}, "WT control animals": {"test_system": "WT control animals", "experiment": "Chronic intraperitoneal treatment: overall effect on WT control animals", "format": "in vivo", "conditions": "daily injection from the 14th to the 90th postnatal day", "procedure": "This solution is then diluted to 1 μg/μl in an isotonic solution containing 1% Pluronic F-127 and 0.9% NaCl. The animals are injected daily intraperitoneally at a dose of 5 mg/kg of body mass. Sterile 0.5 ml BD MicroFine syringes with no dead volume, equipped with a 30G (0.3 mm) needle are used for the injections.\nThe injection is started from the 14th postnatal day (appearance of the expression of the Thy1gene promoter in the hippocampus, triggering the overexpression of Aβ in the APP/PS1-21 murine model)"}, "[3]": {"conditions": "APP/PS1-21 mice, 5 mg/kg i.p. daily from 14th postnatal day"}, "[4]": {"conditions": "WT control mice, chronic treatment"}}}
{"smiles": "CC(C)c1ccc(NC(=O)Cn2cnc3c2c(=O)n(C)c(=O)n3C)cc1", "note": "[HC030031, 2-(1,3-Dimethyl-2,6-dioxo-1,2,3,6-tetrahydro-7H-purin-7-yl)-N-(4-isopropylphenyl)acetamide]", "values": [{"measurement": "IC50", "setting": "rodent forms of TRPA1", "value": 7.6, "unit": "µM"}, {"measurement": "area under the curve for latency to reach the escape box (learning phase, working memory)", "setting": "APP/PS1-21 and WT mice; [3]", "value": "595.9±77.2"}, {"measurement": "first latency to the target area during the trial (reference memory)", "setting": "APP/PS1-21 and WT mice; [3]", "value": "18.5 ± 4.2", "unit": "s"}, {"measurement": "reference memory performance", "setting": "APP/PS1-21 and WT mice; [4]", "value": "no impact"}, {"measurement": "working memory performance", "setting": "APP/PS1-21 and WT mice; [4]", "value": "no impact"}, {"measurement": "IC50", "setting": "human forms of TRPA1", "value": "~6.2", "unit": "µM"}, {"measurement": "synapses enveloped (astrocyte coverage of stratum radiatum synapses)", "setting": "[1]; APP/PS1 mice", "value": "64.0±1.5", "unit": "%"}, {"measurement": "synapses enveloped (astrocyte coating)", "setting": "[1]; WT mice", "value": "62.7±2.7", "unit": "%"}, {"measurement": "dendritic spine density", "setting": "[2]", "value": "1.32±0.08", "unit": "spine/μm"}, {"measurement": "mushroom-shaped spines", "setting": "[2]", "value": "64.0±1.7", "unit": "%"}, {"measurement": "thin spines", "setting": "[2]", "value": "26.7±2.0", "unit": "%"}, {"measurement": "effect at the functional level and at the structural level", "setting": "WT control animals", "value": "no effect"}]}
